Results: ChEMBL document CHEMBL1129231, “Bone targeted drugs 2. synthesis of estrogens with hydroxyapatite affinity” (Bioorg Med Chem Lett, 1996)
pEC50: −log10 of the molar value.

Columns and labels:
Ishikawa = test: Agonist activity in Ishikawa human endometrial cells; type: functional, cell-based
[1] = biological target: Estrogen receptor (Rattus norvegicus) (UniProt P06211+Q62986); test: Relative efficacy for estrogen receptor compared to estradiol; type: protein assay
Estrogen receptor = Estrogen receptor (Rattus norvegicus, UniProt P06211+Q62986); test: Binding affinity for rat estrogen receptor; type: protein assay

Row | pEC50 (Ishikawa) | Emax [1] | IC50 (Estrogen receptor) | SMILES
1 | 10.00 | 80% | 2 nM | CC[C@H](c1ccc(O)cc1)[C@@H](CC)c1ccc(O)cc1 [HEXESTROL]
2 | 4.70 |  | 100000 nM | CC[C@@H](c1ccc(O)cc1)[C@H](Cn1cc(C(=O)O)c(=O)[nH]1)c1ccc(O)cc1
3 | 5.96 |  | 5000 nM | CC[C@@H](c1ccc(O)cc1)[C@H](CCCCn1cc(C(=O)O)c(=O)[nH]1)c1ccc(O)cc1

Row | SMILES | pEC50 (Ishikawa) | Emax [1] | IC50 (Estrogen receptor)
4 | CC[C@@H](c1ccc(O)cc1)[C@H](CCCCn1cc(C(=O)O)cn1)c1ccc(O)cc1 | 5.80 |  | 
